From US8993616B2, “(aza)indole derivative and use thereof for medical purposes” (Kissei Pharmaceutical Co., Ltd., priority 2007, dated 2015) come the findings set out here.

Experiment [1] deals with BBMV from human kidney cortex (uric acid uptake). Nature of the experiment: Inhibitory activity of uric acid transport with brush-border membrane vesicles (BBMV). It counts as biochemical. The note with it: 10 μM test compound; uptake of 14C-labeled uric acid into human kidney cortex BBMV, 20 seconds. Here is the method: Inhibitory activity of uric acid transport of test compounds was performed on the basis of methods described in a reference (Am. J. Physiol. 266 (Renal Fluid Electrolyte Physiol. 35): F797-F805, 1994) with a partial modification.
(1) Preparation of BBMV from Human Kidney Cortex
BBMV from human kidney cortex were purchased from KAC. Renal cortex was dissected from human kidney and cut into small pieces. Then, the cortex was homogenized in 5 volumes of ice-cold isotonic buffer (300 mM mannitol, 5 mM ethylene glycol-bis-(β-aminoethylether)-N,N,N′,N′-tetraacetic acid (EGTA), 12 mM tris(hydroxymethyl)aminomethane (Tris).HCl, pH 7.4). After adding 1 M magnesium chloride to a final concentration of 12 mM, and then the suspension was mixed and allowed to stand on ice for 15 minutes. […] After centrifugation at 30,000×g for 30 minutes at 4° C., the pellet was resuspended in buffer 2, and then the protein concentration was determined. […]
BBMV were thawed on ice. […] The uptake of uric acid into BBMV was measured by the rapid-filtration technique. […] Furthermore, filters were washed twice with 3 mL of stop solution and dissolved in 10 mL of Filter-Count (PerkinElmer), and the radioactivity was counted in a liquid scintillation counter (PerkinElmer). The radioactivity associated with the filters in the absence of BBMV was used as corrections. […]

Experiment [2] addresses Xanthine oxidase (from bovine milk, Sigma) (Bos taurus (Bovine), UniProt P80457). The experiment in a line: Xanthine oxidase inhibitory activity. It counts as biochemical. The note with it: xanthine substrate, 10 minutes at room temperature, absorbance at 290 nm. The procedure:
(1) Preparation of Test Compounds
Test compounds were dissolved in DMSO (Wako) at 40 mM concentration and then diluted to intended concentrations with phosphate-buffered saline (PBS).
(2) Method for Measurement
Xanthine oxidase (from bovine milk, Sigma) was prepared with phosphate-buffered saline (PBS) at 0.02 units/mL, and then the solution was added to 96 well plates at 50 μL/well. In addition, test compounds diluted with PBS were added at 50 μL/well. Xanthine (Wako) at 200 μM prepared with PBS was added at 100 μL/well, and the reaction was conducted for 10 minutes at room temperature. Absorbance at 290 nm was measured using a microplate reader SpectraMax Plus 384 (Molecular device). The absorbance under a condition without xanthine is 0%, and control without test compounds is 100%. Fifty % inhibitory concentration of a test compound (IC50) was calculated (Table 60). Ex. No in the table indicates Example number.

Sequence of Xanthine oxidase (from bovine milk, Sigma) (P80457 whole entry): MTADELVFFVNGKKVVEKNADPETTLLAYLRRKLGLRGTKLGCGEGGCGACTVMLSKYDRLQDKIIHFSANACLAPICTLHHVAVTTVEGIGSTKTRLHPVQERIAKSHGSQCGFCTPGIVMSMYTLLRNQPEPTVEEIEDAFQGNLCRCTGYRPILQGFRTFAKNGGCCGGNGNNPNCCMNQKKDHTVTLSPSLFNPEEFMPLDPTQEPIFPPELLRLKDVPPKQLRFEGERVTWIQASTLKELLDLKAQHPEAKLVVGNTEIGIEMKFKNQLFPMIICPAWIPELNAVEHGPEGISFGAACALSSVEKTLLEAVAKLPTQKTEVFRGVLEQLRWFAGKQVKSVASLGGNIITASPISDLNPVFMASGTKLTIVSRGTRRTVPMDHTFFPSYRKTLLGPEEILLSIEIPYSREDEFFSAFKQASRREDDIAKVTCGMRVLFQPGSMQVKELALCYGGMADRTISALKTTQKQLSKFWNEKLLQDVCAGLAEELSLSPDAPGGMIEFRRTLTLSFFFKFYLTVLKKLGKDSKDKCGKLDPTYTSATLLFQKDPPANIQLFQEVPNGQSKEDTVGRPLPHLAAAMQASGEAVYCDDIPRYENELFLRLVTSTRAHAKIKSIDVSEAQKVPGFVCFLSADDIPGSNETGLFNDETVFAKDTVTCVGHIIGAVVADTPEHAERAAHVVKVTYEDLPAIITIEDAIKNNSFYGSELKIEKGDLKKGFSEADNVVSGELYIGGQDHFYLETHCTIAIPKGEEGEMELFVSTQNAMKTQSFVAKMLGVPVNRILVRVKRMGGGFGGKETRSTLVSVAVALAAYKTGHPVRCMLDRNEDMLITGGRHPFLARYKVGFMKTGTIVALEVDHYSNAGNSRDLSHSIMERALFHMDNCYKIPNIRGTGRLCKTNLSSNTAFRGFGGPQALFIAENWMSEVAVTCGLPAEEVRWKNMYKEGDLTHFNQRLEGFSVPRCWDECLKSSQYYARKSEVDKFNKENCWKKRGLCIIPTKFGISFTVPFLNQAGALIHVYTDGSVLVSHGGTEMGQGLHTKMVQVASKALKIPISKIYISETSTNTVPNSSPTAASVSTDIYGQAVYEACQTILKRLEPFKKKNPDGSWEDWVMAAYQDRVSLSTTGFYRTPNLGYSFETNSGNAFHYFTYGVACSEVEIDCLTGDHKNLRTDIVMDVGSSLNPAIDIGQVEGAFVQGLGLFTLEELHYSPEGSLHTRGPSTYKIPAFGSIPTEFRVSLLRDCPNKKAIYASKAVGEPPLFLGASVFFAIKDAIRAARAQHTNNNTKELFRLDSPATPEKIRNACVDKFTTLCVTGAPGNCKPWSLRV

As a reminder, the IC50 is the concentration that gives 50% inhibition. Low readings indicate inhibition by little substance, high ones a need for much substance. With `CC(C)c1ccc2c(C#N)cn(-c3ccc(C(=O)O)c(O)c3)c2c1` [Example 237], the inhibition % in experiment [1] was 64%. This compound also registered an IC50 in experiment [2] of 12.6 nM.
